In US11324237B2, “Tasteful natural sweetener and flavor” (EPC Natural Products Co., Ltd., priority 2018, dated 2022):
Entries after “also recorded” stand apart in the source; their conditions may differ.

How the values were obtained:
[1] = relative to sugar; cited from earlier work
[2] = Sensory evaluation of combinations of EPCalin, GSGs and SGs and NHDC in water (Example 234); assay type: in vivo, human; conditions: 4.5 ppm Thaumatin and/or 50 ppm GSGs and SGs
Procedure: 4.5 ppm Thaumatin (equivalent to 10 ppm EPCalin) were dissolved in water. Increasing amounts of NHDC (1-5 ppm) were added to the solution and the sensory properties were evaluated.
50 ppm (GSGs and SGs) were dissolved in water. Increasing amounts of NHDC (1-5 ppm) were added to the solution and the sensory properties were evaluated.
50 ppm (GSGs and SGs) and 4.5 ppm Thaumatin (equivalent to 10 ppm EPCalin) were dissolved in water. Increasing amounts of NHDC (1-5 ppm) were added to the solution and the sensory properties were evaluated.
Sweetness Intensity was Rated on 5-Point Scale

[3] = Stevia-derived MRPs with NHDC and thaumatin, alone and in Redbull sugar free (Example 240); assay type: in vivo, human; conditions: added before heating to stevia derived MRP; 150 μl in 100 ml Redbull sugar free
Procedure: 150 μl of the each sample was added to 100 ml Redbull sugar free and mixed. The taste profiles of the samples were compared. As a control, a RedBull sugar free sample without the addition of SteviAroma was used.
Before tasting the tasters discussed the upcoming series of samples and tasted samples with predetermined attributes with varying intensities to find a commonality in description. Four trained tasters blind taste tested independently all samples of a series. They were allowed to re-taste and made notes for the sensory attributes perceived including the relative intensity.
In the last step the attributes noted were discussed openly to find an acceptable description. In case that more than 1 taster disagreed with the description, the tasting was repeated.

[4] = Assay to test Reducing Power (iron-III reduction test for anti-oxidant potential); conditions: combinations of amino acids and Reb-A, 10 mM, pH 7.8, 100° C., diluted 1:10 (FIG. 49)
Procedure: 0.2 M Sodium phosphate buffer, pH=6.6; 500 mg Potassium ferric(III)cyanide/50 mL water, 10% Trichloroacetic acid; 20 mg Iron-III-Chloride/20 mL water; Calibration samples were prepared with Ascorbic acid in a concentration of 0-100 μg/mL 0.2 M Sodium phosphate buffer, pH=6.6 (freshly prepared); as negative control sample water was used.
Samples in aqueous solution were used as such or diluted in 0.2 M Sodium phosphate buffer, pH=6.6.
A 1 mL sample (or calibration standard) was mixed with 1 mL 0.2 M Sodium phosphate buffer, pH=6.6 and 1 mL Potassium ferricyanide solution. The sample was incubated and protected from light at 50° C. for 20 min.
To the solution was added 1 mL Trichloroacetic acid with thorough mixing.
A 1 mL of the mixture was diluted with 1 mL H2O and 0.2 mL Iron-Ill-chloride and reacted for 10 minutes; The absorbance was then determined at 700 nm against H2O.
10 mM of amino acid and/or 10 mM sugar were dissolved in 10 ml 0.1 mM KH2PO4-buffer, pH=7.8. […]
1 ml sample (or calibration standard) solution) was mixed with 0.2 M Sodium phosphate buffer (pH=6.6) and 1 ml Potassium ferric(III)cyanide solution in water (1% w/v) and incubated at 50° C. for 20 minutes. […] The sample was incubated for 10 minutes and absorbance read at 700 nm against a water control. […]
Quantification was performed by linear regression of calibration test results for ascorbic acid. […]

[5] = Assay to test DPPH radical-scavenging activity; conditions: combinations of amino acids and Reb-A, 10 mM, pH 7.8, 100° C., diluted 1:10 (FIG. 50)
Procedure: 1 mg 1,1-Diphenyl-2-picrylhydrazyl radical (DPPH)/ml ethanol, dilution to assay concentration were prepared in ethanol (40 μg/mL); Calibration samples were prepared with Ascorbic acid in a concentration of 0-10 μg/mL; as a negative control sample, water was used.
Samples in aqueous solution were used as such or diluted with water.
A 0.1 ml sample (or calibration standard) was mixed with 3.9 ml solution of DPPH° (100 μMolar) and reacted while protected from light at room temperature for 30 min. Absorbance was determined at 517 nm against ethanol.
10 mM of amino acid and/or 10 mM sugar were dissolved in 10 ml 0.1 mM KH2PO4-buffer, pH=7.8.
The samples were kept at 100° C. in sealed glass vials (Pyrex 15 ml with screw caps) for 0 (before reaction), 2.5 or 5.0 hours. Thereafter the samples were transferred to an ice water bath and cooled down to room temperature. These samples were diluted 1:10 and used for the test assay for anti-oxidant potential. […]
0.2 ml sample (or calibration standard) solution was mixed with 0.2 ml solution of DPPH® (0.1 mM) and 3.6 ml methanol. […] After 3 minutes the absorbance at 517 nm was obtained against ethanol. Quantification was performed by linear regression of calibration test results for ascorbic acid. […]

OC[C@@H](O)[C@@H](O)[C@H](O)[C@H](O)CO [D-mannitol]
natural sweetness [1]: 0.55-0.65 times of that of sugar

COc1ccc(CCC(=O)c2c(O)cc(O[C@@H]3O[C@H](CO)[C@@H](O)[C@H](O)[C@H]3O[C@@H]3O[C@@H](C)[C@H](O)[C@@H](O)[C@H]3O)cc2O)cc1O [NHDC, Neohesperidin dihydrochalcone]
sensory properties of combinations with NHDC [2]: long lasting lingering; also recorded: boosts the lingering | taste profile in sugarfree beverage [3]: improved the mouth-feel and harmony of taste impression yielding a substantially improved taste profile

C=C1C[C@@]23CC[C@H]4[C@@](C)(CCC[C@@]4(C)C(=O)O[C@@H]4O[C@H](CO)[C@@H](O)[C@H](O)[C@H]4O)[C@@H]2CC[C@]1(O[C@@H]1O[C@H](CO)[C@@H](O)[C@H](O[C@@H]2O[C@H](CO)[C@@H](O)[C@H](O)[C@H]2O)[C@H]1O[C@@H]1O[C@H](CO)[C@@H](O)[C@H](O)[C@H]1O)C3 [Reb-A, Rebaudioside A]
active iron-III reduction (anti-oxidant properties) [4]: substantial anti-oxidant properties | radical scavenging properties (anti-oxidant properties) [5]: substantial anti-oxidant properties

C[C@H](CC[C@@H](O[C@@H]1O[C@H](CO)[C@@H](O)[C@H](O)[C@H]1O[C@@H]1O[C@H](CO)[C@@H](O)[C@H](O)[C@H]1O)C(C)(C)O)[C@H]1CC[C@@]2(C)[C@H]3CC=C4[C@@H](CC[C@H](O[C@@H]5O[C@H](CO[C@@H]6O[C@H](CO)[C@@H](O)[C@H](O)[C@H]6O)[C@@H](O)[C@H](O)[C@H]5O)C4(C)C)[C@]3(C)[C@H](O)C[C@]12C [mogroside IV]
natural sweetness [1]: 126 times of that of sugar

C[C@H](CC[C@@H](O[C@@H]1O[C@H](CO[C@@H]2O[C@H](CO)[C@@H](O)[C@H](O)[C@H]2O)[C@@H](O)[C@H](O)[C@H]1O[C@@H]1O[C@H](CO)[C@@H](O)[C@H](O)[C@H]1O)C(C)(C)O)[C@H]1CC[C@@]2(C)[C@@H]3CC=C4[C@@H](CC[C@H](O[C@@H]5O[C@H](CO[C@@H]6O[C@H](CO)[C@@H](O)[C@H](O)[C@H]6O)[C@@H](O)[C@H](O)[C@H]5O)C4(C)C)[C@]3(C)[C@H](O)C[C@]12C [mogroside V]
natural sweetness [1]: 256-344 times of that of sugar
